Measured values taken from PubChem BioAssay (NCI).
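Results reflect a 48-hour exposure of cells in 96-well plates to compound at five concentrations. TGI is the concentration that stops growth completely.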

What was measured:
Test in all cases: NCI tumour cell line growth inhibition, 48 h
KM12 colon = test system: KM12 colon
SF-268 CNS = test system: SF-268 CNS
UACC-62 melanoma = test system: UACC-62 melanoma
SR leukemia = test system: SR leukemia
SK-MEL-28 melanoma = test system: SK-MEL-28 melanoma
MALME-3M melanoma = test system: MALME-3M melanoma
SNB-19 CNS = test system: SNB-19 CNS
MDA-N = test system: MDA-N
HOP-62 NSCLC = test system: HOP-62 NSCLC
NCI-H226 lung = test system: NCI-H226 lung
DU-145 prostate = test system: DU-145 prostate
HS 578T breast = test system: HS 578T breast
RPMI-8226 leukemia = test system: RPMI-8226 leukemia
HL-60(TB) leukemia = test system: HL-60(TB) leukemia
LOX IMVI melanoma = test system: LOX IMVI melanoma
SF-539 CNS = test system: SF-539 CNS
MDA-MB-435 = test system: MDA-MB-435
K-562 leukemia = test system: K-562 leukemia
UACC-257 melanoma = test system: UACC-257 melanoma
PC-3 prostate = test system: PC-3 prostate
ACHN renal = test system: ACHN renal
SF-295 CNS = test system: SF-295 CNS
SK-MEL-2 melanoma = test system: SK-MEL-2 melanoma
UO-31 renal = test system: UO-31 renal
T-47D breast = test system: T-47D breast
HCT-15 colon = test system: HCT-15 colon
SK-OV-3 ovarian = test system: SK-OV-3 ovarian
HT29 colon = test system: HT29 colon
MDA-MB-231 breast = test system: MDA-MB-231 breast
CCRF-CEM leukemia = test system: CCRF-CEM leukemia
EKVX NSCLC = test system: EKVX NSCLC
NCI/ADR-RES ovarian = test system: NCI/ADR-RES ovarian
HCT-116 colon = test system: HCT-116 colon
CAKI-1 renal = test system: CAKI-1 renal
U251 CNS = test system: U251 CNS
M14 melanoma = test system: M14 melanoma
SK-MEL-5 melanoma = test system: SK-MEL-5 melanoma
SNB-75 CNS = test system: SNB-75 CNS
MCF7 breast = test system: MCF7 breast
NCI-H23 lung = test system: NCI-H23 lung
OVCAR-8 ovarian = test system: OVCAR-8 ovarian
A498 renal = test system: A498 renal
MOLT-4 leukemia = test system: MOLT-4 leukemia
SN12C renal = test system: SN12C renal
SW-620 colon = test system: SW-620 colon
TK-10 renal = test system: TK-10 renal
A549 NSCLC = test system: A549 NSCLC
IGROV1 ovarian = test system: IGROV1 ovarian
COLO 205 colon = test system: COLO 205 colon
NCI-H460 lung = test system: NCI-H460 lung
HCC-2998 colon = test system: HCC-2998 colon
786-0 renal = test system: 786-0 renal
OVCAR-4 ovarian = test system: OVCAR-4 ovarian
RXF 393 renal = test system: RXF 393 renal
OVCAR-3 ovarian = test system: OVCAR-3 ovarian
NCI-H522 lung = test system: NCI-H522 lung
BT-549 breast = test system: BT-549 breast

C=CCOC(=O)Cn1cnc2c(N)ncnc21 gave a TGI (KM12 colon) of over 100 µM, a TGI (SF-268 CNS) of over 100 µM and a TGI (UACC-62 melanoma) of over 100 µM. For the same molecule, the TGI (SR leukemia) was over 100 µM, the TGI (SK-MEL-28 melanoma) was over 100 µM and the TGI (MALME-3M melanoma) was over 100 µM. The TGI (SNB-19 CNS) was over 100 µM, the TGI (MDA-N) was over 100 µM and the TGI (HOP-62 NSCLC) was over 100 µM. The TGI (NCI-H226 lung) was over 100 µM, the TGI (DU-145 prostate) was over 100 µM and the TGI (HS 578T breast) was over 100 µM. For the same molecule, the TGI (RPMI-8226 leukemia) was over 100 µM, the TGI (HL-60(TB) leukemia) was over 100 µM and the TGI (LOX IMVI melanoma) was over 100 µM. For the same molecule, the TGI (SF-539 CNS) was over 100 µM, the TGI (MDA-MB-435) was over 100 µM and the TGI (K-562 leukemia) was over 100 µM. For the same molecule, the TGI (UACC-257 melanoma) was over 100 µM, the TGI (PC-3 prostate) was over 100 µM and the TGI (ACHN renal) was over 100 µM. For the same molecule, the TGI (SF-295 CNS) was over 100 µM, the TGI (SK-MEL-2 melanoma) was over 100 µM and the TGI (UO-31 renal) was over 100 µM. The TGI (T-47D breast) was over 100 µM, the TGI (HCT-15 colon) was over 100 µM and the TGI (SK-OV-3 ovarian) was over 100 µM. It also gave a TGI (HT29 colon) of over 100 µM, a TGI (MDA-MB-231 breast) of over 100 µM and a TGI (CCRF-CEM leukemia) of over 100 µM. It also gave a TGI (EKVX NSCLC) of over 100 µM, a TGI (NCI/ADR-RES ovarian) of over 100 µM and a TGI (HCT-116 colon) of over 100 µM. It also gave a TGI (CAKI-1 renal) of over 100 µM, a TGI (U251 CNS) of over 100 µM and a TGI (M14 melanoma) of over 100 µM. For the same molecule, the TGI (SK-MEL-5 melanoma) was over 100 µM, the TGI (SNB-75 CNS) was over 100 µM and the TGI (MCF7 breast) was over 100 µM. For the same molecule, the TGI (NCI-H23 lung) was over 100 µM, the TGI (OVCAR-8 ovarian) was over 100 µM and the TGI (A498 renal) was over 100 µM. The TGI (MOLT-4 leukemia) was over 100 µM, the TGI (SN12C renal) was over 100 µM and the TGI (SW-620 colon) was over 100 µM. The TGI (TK-10 renal) was over 100 µM, the TGI (A549 NSCLC) was over 100 µM and the TGI (IGROV1 ovarian) was over 100 µM. For the same molecule, the TGI (COLO 205 colon) was over 100 µM, the TGI (NCI-H460 lung) was over 100 µM and the TGI (HCC-2998 colon) was over 100 µM. For the same molecule, the TGI (786-0 renal) was over 100 µM and the TGI (OVCAR-4 ovarian) was over 100 µM.

In the case of CCC(C)N1CN(c2ccccc2)C2(CCN(CC3COc4ccccc4O3)CC2)C1=O (stereo not given), the TGI (KM12 colon) is reported as 43.9 µM, the TGI (SF-268 CNS) is reported as over 100 µM and the TGI (UACC-62 melanoma) is reported as 49.8 µM. It also gave a TGI (SR leukemia) of 76 µM, a TGI (SK-MEL-28 melanoma) of over 100 µM and a TGI (MALME-3M melanoma) of 34.6 µM. The TGI (SNB-19 CNS) was over 100 µM, the TGI (MDA-N) was 64.1 µM and the TGI (HOP-62 NSCLC) was 41.7 µM. For the same molecule, the TGI (NCI-H226 lung) was 52.3 µM, the TGI (DU-145 prostate) was 59.8 µM and the TGI (RPMI-8226 leukemia) was 47.2 µM. It also gave a TGI (RXF 393 renal) of 38.1 µM, a TGI (OVCAR-3 ovarian) of 56.2 µM and a TGI (HL-60(TB) leukemia) of 34.4 µM. For the same molecule, the TGI (LOX IMVI melanoma) was 44.2 µM, the TGI (SF-539 CNS) was 33.3 µM and the TGI (NCI-H522 lung) was 68.6 µM. It also gave a TGI (MDA-MB-435) of 49.7 µM, a TGI (K-562 leukemia) of 46.9 µM and a TGI (UACC-257 melanoma) of 65.9 µM. The TGI (PC-3 prostate) was 87.3 µM, the TGI (ACHN renal) was over 100 µM and the TGI (SF-295 CNS) was 39.1 µM. For the same molecule, the TGI (UO-31 renal) was 30.2 µM, the TGI (T-47D breast) was 51.3 µM and the TGI (HCT-15 colon) was 61.1 µM. For the same molecule, the TGI (SK-OV-3 ovarian) was over 100 µM, the TGI (HT29 colon) was 40.3 µM and the TGI (MDA-MB-231 breast) was over 100 µM. The TGI (CCRF-CEM leukemia) was 64.5 µM, the TGI (EKVX NSCLC) was 64.1 µM and the TGI (NCI/ADR-RES ovarian) was 44.1 µM. For the same molecule, the TGI (HCT-116 colon) was 32 µM, the TGI (CAKI-1 renal) was 38.4 µM and the TGI (U251 CNS) was 38.7 µM. For the same molecule, the TGI (M14 melanoma) was 46.3 µM, the TGI (SK-MEL-5 melanoma) was 28.9 µM and the TGI (SNB-75 CNS) was over 100 µM. The TGI (BT-549 breast) was 31.6 µM, the TGI (MCF7 breast) was 49.6 µM and the TGI (NCI-H23 lung) was 73.1 µM. For the same molecule, the TGI (OVCAR-8 ovarian) was 67.9 µM, the TGI (MOLT-4 leukemia) was 66.4 µM and the TGI (SN12C renal) was 84.2 µM. For the same molecule, the TGI (SW-620 colon) was 58.8 µM, the TGI (TK-10 renal) was 86.2 µM and the TGI (A549 NSCLC) was over 100 µM. For the same molecule, the TGI (IGROV1 ovarian) was over 100 µM, the TGI (COLO 205 colon) was 47.7 µM and the TGI (HCC-2998 colon) was 38.8 µM. It also gave a TGI (786-0 renal) of 35.5 µM.
